In test [1] the target is DNA topoisomerase 2-alpha (Homo sapiens) (UniProt P11388). Description: Inhibition of human topoisomerase-2 alpha assessed as inhibition of relaxation of supercoiled pBR322 plasmid DNA at 100 uM measured after 1 hr by ethidium bromide staining based agarose gel electrophoresis relative to control.
Test [2] deals with T1, DNA topoisomerase 1 (Homo sapiens) (UniProt P11387).
T1 sequence (whole entry): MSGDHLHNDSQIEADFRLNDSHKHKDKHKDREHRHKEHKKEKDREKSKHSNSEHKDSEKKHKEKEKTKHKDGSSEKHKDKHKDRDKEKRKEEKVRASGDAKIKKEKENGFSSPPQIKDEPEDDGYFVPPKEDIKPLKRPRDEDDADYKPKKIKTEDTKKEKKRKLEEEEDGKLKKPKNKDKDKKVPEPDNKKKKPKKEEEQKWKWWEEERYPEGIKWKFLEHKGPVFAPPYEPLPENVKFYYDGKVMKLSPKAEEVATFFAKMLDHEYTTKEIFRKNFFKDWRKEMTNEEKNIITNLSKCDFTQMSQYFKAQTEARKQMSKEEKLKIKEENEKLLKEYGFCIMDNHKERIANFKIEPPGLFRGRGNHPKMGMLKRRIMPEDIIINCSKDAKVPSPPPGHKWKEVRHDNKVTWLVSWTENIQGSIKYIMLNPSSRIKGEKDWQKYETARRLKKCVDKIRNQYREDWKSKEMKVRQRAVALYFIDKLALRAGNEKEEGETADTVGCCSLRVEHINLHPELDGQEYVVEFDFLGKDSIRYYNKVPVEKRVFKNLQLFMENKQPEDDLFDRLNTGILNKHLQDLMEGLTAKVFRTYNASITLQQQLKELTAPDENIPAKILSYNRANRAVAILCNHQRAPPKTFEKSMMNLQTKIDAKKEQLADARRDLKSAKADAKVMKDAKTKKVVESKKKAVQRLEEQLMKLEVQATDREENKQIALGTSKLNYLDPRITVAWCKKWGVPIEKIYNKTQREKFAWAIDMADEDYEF
As to the kind of experiment: Inhibition of human topoisomerase-1 assessed as inhibition of relaxation of supercoiled pBR322 plasmid DNA at 100 uM measured after 1 hr by ethidium bromide staining based agarose gel electrophoresis relative to control.

The target in test [3] is T1, DNA topoisomerase 1 (Homo sapiens). Description: Inhibition of human topoisomerase-1 assessed as inhibition of relaxation of supercoiled pBR322 plasmid DNA at 20 uM measured after 1 hr by ethidium bromide staining based agarose gel electrophoresis relative to control.
Test [4] can be described thus: Antiproliferative activity against human DU145 cells measured after 72 hrs by CCK8 assay. The format is functional, cell-based. The note with it: DU-145, 72 h. Background: Tetrazolium assays rely on reduction of a dye to a coloured formazan, in cell work by metabolically active cells.
Test [5] can be described thus: Antiproliferative activity against human HCT15 cells measured after 72 hrs by CCK8 assay. In kind it is functional, cell-based. The note with it: HCT-15, 72 h.
Test [6] is described as follows: Antiproliferative activity against human T47D cells measured after 72 hrs by CCK8 assay. The format is functional, cell-based.
Test [7] can be described thus: Antiproliferative activity against human MCF7 cells measured after 72 hrs by CCK8 assay. The format is functional, cell-based. The note with it: MCF7, 72 h.

Structures can show the parent of a compound that is named as a salt. Where only a bound is given, the exact number is not on record here.

Chain of DNA topoisomerase 2-alpha (Homo sapiens) (P11388 whole entry): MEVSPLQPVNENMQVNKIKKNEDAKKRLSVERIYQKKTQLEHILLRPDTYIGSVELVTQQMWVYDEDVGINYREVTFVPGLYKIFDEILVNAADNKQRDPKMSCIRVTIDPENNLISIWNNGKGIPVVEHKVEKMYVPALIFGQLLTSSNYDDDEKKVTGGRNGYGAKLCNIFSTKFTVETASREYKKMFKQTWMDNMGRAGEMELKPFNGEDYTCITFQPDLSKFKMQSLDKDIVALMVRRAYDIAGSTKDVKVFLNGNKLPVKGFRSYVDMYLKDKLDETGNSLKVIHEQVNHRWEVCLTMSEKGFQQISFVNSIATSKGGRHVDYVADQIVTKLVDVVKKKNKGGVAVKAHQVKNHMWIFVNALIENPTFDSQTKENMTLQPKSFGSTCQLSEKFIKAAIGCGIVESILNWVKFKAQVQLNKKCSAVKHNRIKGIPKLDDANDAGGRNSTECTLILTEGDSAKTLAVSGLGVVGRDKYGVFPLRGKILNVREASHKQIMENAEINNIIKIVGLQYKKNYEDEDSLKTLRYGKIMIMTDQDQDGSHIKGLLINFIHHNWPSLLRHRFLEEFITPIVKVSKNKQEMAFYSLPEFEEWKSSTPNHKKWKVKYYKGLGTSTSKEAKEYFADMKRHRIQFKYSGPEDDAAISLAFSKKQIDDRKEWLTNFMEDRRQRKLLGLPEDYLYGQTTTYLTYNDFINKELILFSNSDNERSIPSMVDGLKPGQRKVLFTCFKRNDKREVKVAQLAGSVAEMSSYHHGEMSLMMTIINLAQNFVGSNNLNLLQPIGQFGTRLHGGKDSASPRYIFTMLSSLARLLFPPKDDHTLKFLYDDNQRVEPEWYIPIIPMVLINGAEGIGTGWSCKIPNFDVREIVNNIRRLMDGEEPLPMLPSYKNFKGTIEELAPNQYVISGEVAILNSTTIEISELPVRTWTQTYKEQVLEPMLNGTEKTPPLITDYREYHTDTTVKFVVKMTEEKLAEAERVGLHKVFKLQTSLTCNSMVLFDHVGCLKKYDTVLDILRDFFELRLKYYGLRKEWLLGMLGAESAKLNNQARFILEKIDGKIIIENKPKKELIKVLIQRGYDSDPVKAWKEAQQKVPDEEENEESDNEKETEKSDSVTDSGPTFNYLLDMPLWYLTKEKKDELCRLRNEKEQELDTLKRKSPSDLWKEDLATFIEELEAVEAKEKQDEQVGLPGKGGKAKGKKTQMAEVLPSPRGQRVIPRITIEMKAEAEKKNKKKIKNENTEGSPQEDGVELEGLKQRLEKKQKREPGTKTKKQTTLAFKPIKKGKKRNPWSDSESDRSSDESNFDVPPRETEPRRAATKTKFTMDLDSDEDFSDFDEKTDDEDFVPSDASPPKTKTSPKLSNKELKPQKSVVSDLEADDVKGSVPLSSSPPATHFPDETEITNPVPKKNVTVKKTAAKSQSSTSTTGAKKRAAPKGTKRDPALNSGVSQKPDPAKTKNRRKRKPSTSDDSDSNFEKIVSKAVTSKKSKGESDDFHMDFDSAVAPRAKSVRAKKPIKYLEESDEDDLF

The inhibition is the percentage by which the read-out fell short of the control. As to `CCOc1ccc2c(c1)Oc1cc(OC(=O)c3ccccc3Cl)ccc1C21c2ccccc2C(=O)N1/N=C/c1cccc(OC(=O)c2ccccc2Cl)c1` (stereo unspecified), the inhibition was 7% in test [1] and 0% in test [2].
`CCOc1ccc2c(c1)Oc1cc(OC(=O)c3ccccc3Cl)ccc1C21c2ccccc2C(=O)N1/N=C/c1ccc(OC(=O)c2ccccc2Cl)cc1` (stereo unspecified): the inhibition was 13.1% in test [1], 24.6% in test [3] and 30.1% in test [2].
Usually IC50 stands for the concentration at which inhibition is half-maximal. Higher therefore signals a need for much substance. Turning to `COc1cccc2c1C(=O)c1c(O)c3c(c(O)c1C2=O)C[C@@](O)(C(=O)CO)C[C@@H]3O[C@H]1C[C@H](N)[C@H](O)[C@H](C)O1` [DOXORUBICIN HYDROCHLORIDE], the IC50 in test [4] was 1.59 µM; in test [5], 0.74 µM; in test [6] it was 1.5 µM.
On to `CCOc1ccc2c(c1)Oc1cc(OC(=O)c3ccccc3[N+](=O)[O-])ccc1C21c2ccccc2C(=O)N1/N=C/c1ccccc1[N+](=O)[O-]` (stereo unspecified), for which the values for the inhibition in test [1] and in test [2] were 7.5% and 16.9%, respectively.
Consider `CCOc1ccc2c(c1)Oc1cc(OC(=O)c3ccccc3[N+](=O)[O-])ccc1C21c2ccccc2C(=O)N1/N=C/c1ccc(OC)cc1` (stereo unspecified), for which the inhibition in test [1] amounted to 6%; in test [3], 3.5%; in test [2], 54.6%.
For `CCOc1ccc2c(c1)Oc1cc(OC(=O)c3ccccc3)ccc1C21c2ccccc2C(=O)N1/N=C/c1ccccc1OC(=O)c1ccccc1` (stereo unspecified), the IC50 in test [4] was more than 50 µM; in test [5], 8.29 µM; in test [6], more than 50 µM; in test [7] it was more than 50 µM. The inhibition in test [1] is 21.5%; in test [3] it was 55.9%; in test [2], 73.2%.
As for `CCOc1ccc2c(c1)Oc1cc(OC(=O)c3ccccc3)ccc1C21c2ccccc2C(=O)N1/N=C/c1ccc(OC)cc1` (stereo unspecified), the results for the inhibition in test [1], in test [3] and in test [2] were 5.4%, 9.8% and 44.6%, respectively.
In the case of `CC[C@@]1(O)C(=O)OCc2c1cc1n(c2=O)Cc2cc3ccccc3nc2-1` [CAMPTOTHECIN], the 50% inhibitory concentration (IC50) in test [4] worked out at 0.38 µM; in test [5] it was 0.35 µM; in test [6], 0.59 µM; in test [7] it was 4.54 µM.
As for `CCOc1ccc2c(c1)Oc1cc(OC(=O)c3ccccc3OC)ccc1C21c2ccccc2C(=O)N1/N=C/c1ccccc1OC(=O)c1ccccc1OC` (stereo unspecified), the IC50 in test [4] is more than 50 µM; in test [5], 1.56 µM; in test [6] it was 6.22 µM; in test [7] it was more than 50 µM. In addition, the values for the inhibition in test [1] and in test [2] were 10.3% and 0%, respectively.
Take `CCOc1ccc2c(c1)Oc1cc(OC(=O)c3ccccc3Cl)ccc1C21c2ccccc2C(=O)N1/N=C/c1ccc(OC)c(OC(=O)c2ccccc2Cl)c1` (stereo unspecified): the inhibition in test [1] is 4.8%; in test [3], 1.7%; in test [2], 86.6%.
`CCOc1ccc2c(c1)Oc1cc(OC(=O)c3ccccc3Cl)ccc1C21c2ccccc2C(=O)N1/N=C/c1ccc(Cl)cc1Cl` (stereo unspecified): the inhibition in test [1] is 8.5%; in test [2], 14.4%.
Consider `CCOc1ccc2c(c1)Oc1cc(OC(=O)c3ccccc3)ccc1C21c2ccccc2C(=O)N1/N=C/c1cccc(OC(=O)c2ccccc2)c1` (stereo unspecified), for which the IC50 in test [4] was more than 50 µM; in test [5], 28.9 µM; in test [6] it was more than 50 µM; in test [7], more than 50 µM. The values for the inhibition in test [1] and in test [2] were 6.7% and 0%, respectively.
Turning to `CCOc1ccc2c(c1)Oc1cc(OC(=O)c3ccccc3)ccc1C21c2ccccc2C(=O)N1/N=C/c1ccccc1OC` (stereo unspecified), the inhibition in test [1] turned out to be 6.9%; in test [3], 48.1%; in test [2] it was 81.3%.
Turning to `CCOc1ccc2c(c1)Oc1cc(OC(=O)c3ccccc3)ccc1C21c2ccccc2C(=O)N1/N=C/c1ccc(Cl)cc1Cl` (stereo unspecified), the figures for the inhibition in test [1], in test [3] and in test [2] were 25.3%, 2.5% and 99.9%, respectively.
As to `CCOc1ccc2c(c1)Oc1cc(OC(=O)c3ccccc3[N+](=O)[O-])ccc1C21c2ccccc2C(=O)N1/N=C/c1ccccc1OC` (stereo unspecified), the inhibition came to 9% in test [1], 34.4% in test [3] and 79.3% in test [2].
Take `CCOc1ccc2c(c1)Oc1cc(OC(=O)c3ccccc3OC)ccc1C21c2ccccc2C(=O)N1/N=C/c1ccccc1[N+](=O)[O-]` (stereo unspecified): the inhibition in test [1] was determined as 6.2%; in test [2], 19%.
Take `CCOc1ccc2c(c1)Oc1cc(OC(=O)c3ccccc3OC)ccc1C21c2ccccc2C(=O)N1/N=C/c1ccc(Cl)cc1Cl` (stereo unspecified): the inhibition in test [1] stood at 25%; in test [3], 10%; in test [2], 69.2%.
On to `CCOc1ccc2c(c1)Oc1cc(OC(=O)c3ccccc3Cl)ccc1C21c2ccccc2C(=O)N1/N=C/c1ccc(OC)cc1` (stereo unspecified), for which the inhibition in test [1] worked out at 5.6%; in test [2], 3.3%.
The corresponding values for `CCOc1ccc2c(c1)Oc1cc(OC(=O)c3ccccc3)ccc1C21c2ccccc2C(=O)N1/N=C/c1ccc(Cl)cc1` (stereo unspecified) are 7% and 9.4%.
For `CCOc1ccc2c(c1)Oc1cc(OC(=O)c3ccccc3[N+](=O)[O-])ccc1C21c2ccccc2C(=O)N1/N=C/c1ccc(Cl)cc1` (stereo unspecified), the values for the inhibition in test [1] and in test [2] were 10.8% and 12.9%, respectively.
With `CCOc1ccc2c(c1)Oc1cc(OC(=O)c3ccccc3[N+](=O)[O-])ccc1C21c2ccccc2C(=O)N1/N=C/c1ccc(OC(=O)c2ccccc2[N+](=O)[O-])cc1` (stereo unspecified), the inhibition came to 13.2% in test [1] and 22.7% in test [2].
For `CCOc1ccc2c(c1)Oc1cc(OC(=O)c3ccccc3Cl)ccc1C21c2ccccc2C(=O)N1/N=C/c1ccccc1OC(=O)c1ccccc1Cl` (stereo unspecified), in that order: 11.1% and 0%.
For the compound `CCOc1ccc2c(c1)Oc1cc(OC(=O)c3ccccc3OC)ccc1C21c2ccccc2C(=O)N1/N=C/c1ccc(OC(=O)c2ccccc2OC)cc1` (stereo unspecified), the IC50 was more than 50 µM in test [4], more than 50 µM in test [5], 44.8 µM in test [6] and more than 50 µM in test [7]. In addition, the inhibition in test [1] came out at 11.4%; in test [2] it was 0%.
With `CCOc1ccc2c(c1)Oc1cc(OC(=O)c3ccccc3[N+](=O)[O-])ccc1C21c2ccccc2C(=O)N1/N=C/c1ccc(OC)c(OC(=O)c2ccccc2[N+](=O)[O-])c1` (stereo unspecified), the inhibition in test [1] was 3.9%; in test [3], 15.8%; in test [2] it was 87.2%.
For `CCOc1ccc2c(c1)Oc1cc(OC(=O)c3ccccc3)ccc1C21c2ccccc2C(=O)N1/N=C/c1ccccc1[N+](=O)[O-]` (stereo unspecified), in that order: 6.1%, 0% and 55.4%.
As for `CCOc1ccc2c(c1)Oc1cc(OC(=O)c3ccccc3OC)ccc1C21c2ccccc2C(=O)N1/N=C/c1ccc(OC)cc1` (stereo unspecified), the inhibition in test [1] was 4.8%; in test [3], 17.3%; in test [2], 35.6%.
Turning to `CCOc1ccc2c(c1)Oc1cc(OC(=O)c3ccccc3[N+](=O)[O-])ccc1C21c2ccccc2C(=O)N1/N=C/c1ccccc1OC(=O)c1ccccc1[N+](=O)[O-]` (stereo unspecified), the IC50 was more than 50 µM in test [4], more than 50 µM in test [5], 5.45 µM in test [6] and more than 50 µM in test [7]. Besides, the inhibition in test [1] was found to be 25.7%; in test [2], 0%.
For `CCOc1ccc2c(c1)Oc1cc(OC(=O)c3ccccc3[N+](=O)[O-])ccc1C21c2ccccc2C(=O)N1/N=C/c1cccc(OC(=O)c2ccccc2[N+](=O)[O-])c1` (stereo unspecified), the inhibition in test [1] amounted to 6.6%; in test [2], 0%.
`CCOc1ccc2c(c1)Oc1cc(OC(=O)c3ccccc3)ccc1C21c2ccccc2C(=O)N1/N=C/c1ccc(OC)c(OC(=O)c2ccccc2)c1` (stereo unspecified): the inhibition in test [1] came out at 2.7%; in test [3], 72%; in test [2] it was 89.4%.
Take `CCOc1ccc2c(c1)Oc1cc(OC(=O)c3ccccc3OC)ccc1C21c2ccccc2C(=O)N1/N=C/c1ccc(Cl)cc1` (stereo unspecified): the figures for the inhibition in test [1] and in test [2] were 6.5% and 4.2%, respectively.
For the compound `CCOc1ccc2c(c1)Oc1cc(OC(=O)c3ccccc3)ccc1C21c2ccccc2C(=O)N1/N=C/c1ccc(OC(=O)c2ccccc2)cc1` (stereo unspecified), the inhibition in test [1] was 7.9%; in test [3], 9.2%; in test [2] it was 75.3%.
On to `CCOc1ccc2c(c1)Oc1cc(OC(=O)c3ccccc3OC)ccc1C21c2ccccc2C(=O)N1/N=C/c1cccc(OC(=O)c2ccccc2OC)c1` (stereo unspecified), for which the inhibition in test [1] came to 2.8%; in test [2], 0%.

Source of the values: ChEMBL document CHEMBL3877252, “Fluorescein hydrazones: A series of novel non-intercalative topoisomerase IIα catalytic inhibitors induce G1 arrest and apoptosis in breast and colon cancer cells” (Eur J Med Chem, 2017).
